Results reported in article PMC9475448, “What a difference a methylene makes: replacing Glu with Asp or Aad in the Lys-urea-Glu pharmacophore of PSMA-targeting radioligands to reduce kidney and salivary gland uptake” (Theranostics, 2022).

Tested on: LNCaP tumor-bearing mice
Assay: Ex vivo biodistribution of 177Lu-labeled ligands in LNCaP tumor-bearing NRG mice

[^177Lu]Lu-PSMA-617 was tested, and the Adrenal glands uptake (24 h post-injection) was 0.032 ± 0.010 %IA/g, the Blood uptake (24 h post-injection) was 0.004 ± 0.001 %IA/g and the “Blood:Salivary gland uptake ratio” value (24 h post-injection) was 0.10 ± 0.02. For the same substance, the Bone uptake (24 h post-injection) was 0.009 ± 0.005 %IA/g, the Brain uptake (24 h post-injection) was 0.010 ± 0.002 %IA/g and the Fat uptake (24 h post-injection) was 0.009 ± 0.008 %IA/g. The Heart uptake (24 h post-injection) was 0.009 ± 0.003 %IA/g, the Intestines uptake (24 h post-injection) was 0.059 ± 0.039 %IA/g and the Kidneys uptake (24 h post-injection) was 0.658 ± 0.159 %IA/g. For the same substance, the Lacrimal glands uptake (24 h post-injection) was 0.050 ± 0.024 %IA/g, the Liver uptake (24 h post-injection) was 0.043 ± 0.027 %IA/g and the Lungs uptake (24 h post-injection) was 0.028 ± 0.005 %IA/g. The Muscle uptake (24 h post-injection) was 0.005 ± 0.001 %IA/g, the Pancreas uptake (24 h post-injection) was 0.008 ± 0.002 %IA/g and the Salivary glands uptake (24 h post-injection) was 0.018 ± 0.003 %IA/g. The Spleen uptake (24 h post-injection) was 0.039 ± 0.007 %IA/g, the Stomach uptake (24 h post-injection) was 0.044 ± 0.011 %IA/g and the Testes uptake (24 h post-injection) was 0.018 ± 0.003 %IA/g. For the same substance, the Tumor uptake (24 h post-injection) was 13.18 ± 3.151 %IA/g, the “Tumor:Blood uptake ratio” value (24 h post-injection) was 4045 ± 1693 and the “Tumor:Kidney uptake ratio” value (24 h post-injection) was 21.6 ± 8.83. The “Tumor:Muscle uptake ratio” value (24 h post-injection) was 2905 ± 453, the “Tumor:Salivary gland uptake ratio” value (24 h post-injection) was 371 ± 129 and the Adrenal glands uptake (72 h post-injection) was 0.007 ± 0.004 %IA/g. The Blood uptake (72 h post-injection) was 0.002 ± 0.001 %IA/g, the “Blood:Salivary gland uptake ratio” value (72 h post-injection) was 0.19 ± 0.08 and the Bone uptake (72 h post-injection) was 0.006 ± 0.003 %IA/g. For the same substance, the Brain uptake (72 h post-injection) was 0.008 ± 0.002 %IA/g, the Fat uptake (72 h post-injection) was 0.006 ± 0.012 %IA/g and the Heart uptake (72 h post-injection) was 0.004 ± 0.001 %IA/g. The Intestines uptake (72 h post-injection) was 0.062 ± 0.080 %IA/g, the Kidneys uptake (72 h post-injection) was 0.181 ± 0.046 %IA/g and the Lacrimal glands uptake (72 h post-injection) was 0.023 ± 0.009 %IA/g. It also gave a Liver uptake (72 h post-injection) of 0.021 ± 0.004 %IA/g, a Lungs uptake (72 h post-injection) of 0.011 ± 0.002 %IA/g and a Muscle uptake (72 h post-injection) of 0.004 ± 0.004 %IA/g. It also gave a Pancreas uptake (72 h post-injection) of 0.003 ± 0.001 %IA/g, a Salivary glands uptake (72 h post-injection) of 0.012 ± 0.003 %IA/g and a Spleen uptake (72 h post-injection) of 0.016 ± 0.005 %IA/g. The Stomach uptake (72 h post-injection) was 0.096 ± 0.155 %IA/g, the Testes uptake (72 h post-injection) was 0.014 ± 0.012 %IA/g and the Thyroid uptake (72 h post-injection) was 0.009 ± 0.002 %IA/g. The Tumor uptake (72 h post-injection) was 11.0±2.12 %IA/g, the “Tumor:Blood uptake ratio” value (72 h post-injection) was 5784 ± 1756 and the “Tumor:Kidney uptake ratio” value (72 h post-injection) was 62.4 ± 11.1. For the same substance, the “Tumor:Muscle uptake ratio” value (72 h post-injection) was 4712 ± 3587, the “Tumor:Salivary gland uptake ratio” value (72 h post-injection) was 969 ± 241 and the Tumor uptake (72 h post-injection, listed as [177Lu]Lu-PSMA-617) was 10.97 ± 2.122 %IA/g. For the same substance, the Adrenal glands uptake (120 h post-injection) was 0.005 ± 0.008 %IA/g, the Blood uptake (120 h post-injection) was 0.002 ± 0.001 %IA/g and the “Blood:Salivary gland uptake ratio” value (120 h post-injection) was 0.42 ± 0.19. It also gave a Bone uptake (120 h post-injection) of 0.003 ± 0.004 %IA/g, a Brain uptake (120 h post-injection) of 0.007 ± 0.001 %IA/g and a Fat uptake (120 h post-injection) of 0.002 ± 0.001 %IA/g. The Heart uptake (120 h post-injection) was 0.002 ± 0.001 %IA/g, the Intestines uptake (120 h post-injection) was 0.012 ± 0.011 %IA/g and the Kidneys uptake (120 h post-injection) was 0.111 ± 0.054 %IA/g. For the same substance, the Lacrimal glands uptake (120 h post-injection) was 0.021 ± 0.010 %IA/g, the Liver uptake (120 h post-injection) was 0.016 ± 0.004 %IA/g and the Lungs uptake (120 h post-injection) was 0.006 ± 0.001 %IA/g. It also gave a Muscle uptake (120 h post-injection) of 0.002 ± 0.002 %IA/g, a Pancreas uptake (120 h post-injection) of 0.001 ± 0.001 %IA/g and a Salivary glands uptake (120 h post-injection) of 0.005 ± 0.002 %IA/g. It also gave a Spleen uptake (120 h post-injection) of 0.013 ± 0.004 %IA/g, a Stomach uptake (120 h post-injection) of 0.013 ± 0.013 %IA/g and a Testes uptake (120 h post-injection) of 0.006 ± 0.002 %IA/g. For the same substance, the Thyroid uptake (120 h post-injection) was 0.005 ± 0.001 %IA/g, the Tumor uptake (120 h post-injection) was 12.3±5.52 %IA/g and the “Tumor:Blood uptake ratio” value (120 h post-injection) was 8895 ± 4881. For the same substance, the “Tumor:Kidney uptake ratio” value (120 h post-injection) was 126 ± 76.0, the “Tumor:Muscle uptake ratio” value (120 h post-injection) was 11627 ± 7865 and the “Tumor:Salivary gland uptake ratio” value (120 h post-injection) was 3324 ± 2257. For the same substance, the Tumor uptake (120 h post-injection, listed as [177Lu]Lu-PSMA-617) was 12.25 ± 5.519 %IA/g.
